Assay results reported in patent US9474790B2, “Stable, protracted GLP-1/glucagon receptor co-agonists for medical use” (Novo Nordisk A/S, priority 2013, dated 2016).
Numbered stars: 1 amine (or outer) side, 2 acyl side, 3 side chain; on linkers, the order of the positions; unused ones are H or OH. Square brackets hold non-standard residues; d marks the D form. Side chains are listed from the residue outwards. Peptide text beside a SMILES is read from it. * marks the point of attachment. C18 diacid = O=C(O)CCCCCCCCCCCCCCCCC(=O)*; γGlu = O=C(O)[C@H](CCC(=O)[*:2])N[*:1]; AEEA = NCCOCCOCC(=O)O; Ac3c = NC1(C(=O)O)CC1; Aib = CC(C)(N)C(=O)O

Key:
human GLP-1 receptor = target: T1, human GLP-1 receptor (Homo sapiens, UniProt P43220); assay: GLP-1 receptor potency, CRE luciferase reporter gene assay in BHK cells; type: cell-based; conditions: BHK cells expressing human GLP-1 receptor, read-out: EC50 GLP-1R
T1 construct: expressed in transfected cells; host or cells: BHK cells (parent BHKTS13), clone FCW467-12A/KZ10-1, with CRE luciferase
Experimental: The purpose of this example was to test the potency, of the glucagon derivatives of the invention, in vitro. The in vitro potency is the measure of human GLP-1 receptor or glucagon receptor activation, respectively, in a whole cell assay.
In vitro potency was determined by measuring the response of human GLP-1 or glucagon receptor, respectively, in a reporter gene assay. The assay was performed in a stably transfected BHK cell line that expresses either the human GLP-1 receptor or the human glucagon receptor and contains the DNA for the cAMP response element (CRE) coupled to a promoter and the gene for firefly luciferase (CRE luciferase). […] When assay incubation was completed, the luciferase substrate (luciferin) was added and the enzyme converted luciferin to oxyluciferin and produces bioluminescence. The luminescence was measured as the readout for the assay.
The cells used in this assay (clone FCW467-12A/KZ10-1) were BHK cells with BHKTS13 as a parent cell line. The cells were derived from a clone (FCW467-12A) that expresses the human GLP-1 receptor and were established by further transfection with
CRE luciferase to obtain the current clone.
The cells were cultured at 5% CO2 in DMEM medium with 10% FBS, 1×GlutaMAX, 1 mg/ml G418, 240 nM MTX (methotrexate) and 1% pen/strep (penicillin/streptomycin). They were aliquoted and stored in liquid nitrogen. Before each assay, an aliquot was taken up and washed three times in PBS before being suspended at the desired concentration in assay medium. For 96-well plates the suspension was made to give a final concentration of 5×10EE3 cells/well.
The following chemicals were used in the assay: Pluronic F-68 (10%) (Gibco 2404), ovalbumin (Sigma A5503), DMEM w/o phenol red (Gibco 11880-028), 1 M Hepes (Gibco 15630), Glutamax 100× (Gibco 35050) and steadylite plus (PerkinElmer 6016757).
Assay Medium consisted of DMEM w/o phenol red, 10 mM Hepes, lx GlutaMAX, 2% Ovalbumin and 0.2% Pluronic F-68.
Cell stocks were thawed in a 37° C. water bath. Cells were washed three times in PBS. The cells were counted and adjusted to 5×10EE3 cells/50 μl (1×10EE5 cells/ml) in Assay Medium. A 50 μl aliquot of cells was transferred to each well in the assay plate.
Stocks of the test compounds and reference compounds were diluted to a concentration of […] in Assay Medium. Compounds were diluted 10-fold to give the following concentrations: 2×10EE-6 M, 2×10EE-7 M, 2×10EE-8 M; 2×10EE-9 M, 2×10EE-10 M, 2×10EE-11 M, 2×10EE-12 M and 2×10EE-13 M. For each compound a blank assay medium control was also included.
A 50 μl aliquot of compound or blank was transferred from the dilution plate to the assay plate. Compounds were tested at the following final concentrations: 1×10EE-6 M, 1×10EE-7 M, 1×10EE-8 M; 1×10EE-9 M, 1×10EE-10 M, 1×10EE-11 M and 1×10EE-12 M and 1×10EE-13 M.
The assay plate was incubated for 3 h in a 5% CO2 incubator at 37° C. The assay plate was removed from the incubator and allowed to stand at room temperature for 15 min. A 100 μl aliquot of steadylite plus reagent was added to each well of the assay plate (reagent is light sensitive). Each assay plate was covered with aluminum foil to protect it from light and shaken for 30 min at room temperature. Each assay plate was read in a Perkin Elmer TopCount NXT instrument.
The data from the TopCount instrument was transferred to GraphPad Prism software. The software performed a non-linear regression (log(agonist) vs response-Variable slope (four parameter)). EC50 values were calculated by the software and reported in pM.

[1] = Thioflavin T (ThT) fibrillation assay for physical stability; type: physicochemical; conditions: 250 μM in 10 mM HEPES buffer, pH 7.5, 37° C., shaking 960 rpm
How it was run: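 Peptide at 250 μM in 10 mM HEPES pH 7.5 with 1 μM ThT, at 37° C with 960 rpm orbital shaking. Fluorescence (ex 444/em 485 nm) read every 20 min after 10 min pre-incubation; sigmoidal fit gives lag time (t0−2τ) and kapp (1/τ). Recovery is RP-HPLC peptide in the centrifuged, 0.22 μm-filtered supernatant as % of initial.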

T1 sequence (P43220 24-463): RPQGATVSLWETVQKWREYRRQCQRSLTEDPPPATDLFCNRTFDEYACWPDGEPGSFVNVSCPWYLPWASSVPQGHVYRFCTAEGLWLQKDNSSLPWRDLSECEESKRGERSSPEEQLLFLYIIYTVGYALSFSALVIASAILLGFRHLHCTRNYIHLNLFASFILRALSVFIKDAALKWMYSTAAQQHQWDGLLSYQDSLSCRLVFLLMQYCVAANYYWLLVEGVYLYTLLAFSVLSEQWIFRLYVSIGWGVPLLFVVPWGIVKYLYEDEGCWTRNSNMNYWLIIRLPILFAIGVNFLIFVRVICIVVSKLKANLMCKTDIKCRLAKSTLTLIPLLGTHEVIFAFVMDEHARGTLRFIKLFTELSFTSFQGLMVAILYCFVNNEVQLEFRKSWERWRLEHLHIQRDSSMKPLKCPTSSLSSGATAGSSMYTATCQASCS

EC50 (human GLP-1 receptor) | THT assay Lag time (Ex. 76) [1] | Structure (SMILES)
0.006 nM |  | CC(C)C[C@H](NC(=O)[C@H](CC(C)C)NC(=O)[C@H](Cc1c[nH]c2ccccc12)NC(=O)[C@H](CCC(N)=O)NC(=O)[C@@H](NC(=O)[C@H](Cc1ccccc1)NC(=O)[C@H](CC(=O)O)NC(=O)[C@H](CCCCN)NC(=O)[C@H](C)NC(=O)[C@H](CCCNC(=N)N)NC(=O)[C@H](CCCNC(=N)N)NC(=O)[C@H](CCC(=O)O)NC(=O)[C@H](CC(=O)O)NC(=O)[C@H](CC(C)C)NC(=O)[C@H](Cc1ccc(O)cc1)NC(=O)[C@H](CCCCN)NC(=O)[C@H](CO)NC(=O)[C@H](CC(C)C)NC(=O)[C@H](CC(=O)O)NC(=O)[C@H](CO)NC(=O)[C@@H](NC(=O)[C@H](Cc1ccccc1)NC(=O)[C@@H](NC(=O)CNC(=O)[C@H](CCC(N)=O)NC(=O)C(C)(C)NC(=O)[C@@H](N)Cc1c[nH]cn1)[C@@H](C)O)[C@@H](C)O)C(C)C)C(=O)N[C@@H](CO)C(=O)N[C@@H](CCCCNC(=O)CC[C@H](NC(=O)CC[C@H](NC(=O)COCCOCCNC(=O)COCCOCCNC(=O)CC[C@H](NC(=O)CCCCCCCCCCCCCCCCC(=O)O)C(=O)O)C(=O)O)C(=O)O)C(N)=O [Example 13, N^ε29-[(4S)-4-carboxy-4-[[(4S)-4-carboxy-4-[[2-[2-[2-[[2-[2-[2-[[(4S)-4-carboxy-4-(17-carboxyheptadecanoylamino)butanoyl]amino]ethoxy]ethoxy]acetyl]amino]ethoxy]ethoxy]acetyl]amino]butanoyl]amino]butanoyl]-[Aib2,Leu10,Glu16,Lys20,Leu27,Ser28,Lys29]-Glucagon amide] (H-H[Aib]QGTFTSDLSKYLDERRAKDFVQWLLSK([γGlu-γGlu-AEEA-AEEA-γGlu-C18 diacid])-NH2; N-terminus assumed)
0.02 nM |  | CC(C)C[C@H](NC(=O)[C@H](CC(C)C)NC(=O)[C@H](Cc1c[nH]c2ccccc12)NC(=O)[C@H](CCCNC(=N)N)NC(=O)[C@@H](NC(=O)[C@H](Cc1ccccc1)NC(=O)[C@H](CC(=O)O)NC(=O)[C@H](CCC(N)=O)NC(=O)[C@H](C)NC(=O)[C@H](CCCNC(=N)N)NC(=O)[C@H](CCCNC(=N)N)NC(=O)[C@@H](NC(=O)[C@H](CC(=O)O)NC(=O)[C@H](CC(C)C)NC(=O)[C@H](Cc1ccc(O)cc1)NC(=O)[C@H](CCCCN)NC(=O)[C@H](CO)NC(=O)[C@H](CC(C)C)NC(=O)[C@H](CC(=O)O)NC(=O)[C@H](CO)NC(=O)[C@@H](NC(=O)[C@H](Cc1ccccc1)NC(=O)[C@@H](NC(=O)CNC(=O)[C@H](CCC(N)=O)NC(=O)C(C)(C)NC(=O)[C@@H](N)Cc1c[nH]cn1)[C@@H](C)O)[C@@H](C)O)[C@@H](C)O)C(C)C)C(=O)N[C@@H](CO)C(=O)N[C@@H](CCCCNC(=O)CC[C@H](NC(=O)CC[C@H](NC(=O)COCCOCCNC(=O)COCCOCCNC(=O)CC[C@H](NC(=O)CCCCCCCCCCCCCCCCC(=O)O)C(=O)O)C(=O)O)C(=O)O)C(N)=O [Example 15, N^ε29-[(4S)-4-carboxy-4-[[(4S)-4-carboxy-4-[[2-[2-[2-[[2-[2-[2-[[(4S)-4-carboxy-4-(17-carboxyheptadecanoylamino)butanoyl]amino]ethoxy]ethoxy]acetyl]amino]ethoxy]ethoxy]acetyl]amino]butanoyl]amino]butanoyl]-[Aib2,Leu10,Thr16,Arg24,Leu27,Ser28,Lys29]-Glucagon amide] (H-H[Aib]QGTFTSDLSKYLDTRRAQDFVRWLLSK([γGlu-γGlu-AEEA-AEEA-γGlu-C18 diacid])-NH2; N-terminus assumed)
0.011 nM | 28 h | CC(C)C[C@H](NC(=O)[C@H](Cc1ccc(O)cc1)NC(=O)[C@H](CCCCN)NC(=O)[C@H](CO)NC(=O)[C@H](CC(C)C)NC(=O)[C@H](CC(=O)O)NC(=O)[C@H](CO)NC(=O)[C@@H](NC(=O)[C@H](Cc1ccccc1)NC(=O)[C@@H](NC(=O)CNC(=O)[C@H](CCC(N)=O)NC(=O)C1(NC(=O)[C@@H](N)Cc2c[nH]cn2)CC1)[C@@H](C)O)[C@@H](C)O)C(=O)N[C@@H](CCC(=O)O)C(=O)N[C@@H](CO)C(=O)N[C@@H](CCCNC(=N)N)C(=O)N[C@@H](CCCNC(=N)N)C(=O)N[C@@H](C)C(=O)N[C@@H](CCCNC(=N)N)C(=O)N[C@@H](CCC(=O)O)C(=O)N[C@@H](Cc1ccccc1)C(=O)N[C@H](C(=O)N[C@@H](CCC(N)=O)C(=O)N[C@@H](Cc1c[nH]c2ccccc12)C(=O)N[C@@H](CC(C)C)C(=O)N[C@@H](CC(C)C)C(=O)N[C@@H](CCCCNC(=O)CC[C@H](NC(=O)CC[C@H](NC(=O)COCCOCCNC(=O)COCCOCCNC(=O)CC[C@H](NC(=O)CCCCCCCCCCCCCCCCC(=O)O)C(=O)O)C(=O)O)C(=O)O)C(=O)N[C@H](C(N)=O)[C@@H](C)O)C(C)C [Example 50, N^ε28-[(4S)-4-carboxy-4-[[(4S)-4-carboxy-4-[[2-[2-[2-[[2-[2-[2-[[(4S)-4-carboxy-4-(17-carboxyheptadecanoylamino)butanoyl]amino]ethoxy]ethoxy]acetyl]amino]ethoxy]ethoxy]acetyl]amino]butanoyl]amino]butanoyl]-[Acpr2,Leu10,Glu15,Arg20,Glu21,Leu27,Lys28]-Glucagon amide] (H-H[Ac3c]QGTFTSDLSKYLESRRAREFVQWLLK([γGlu-γGlu-AEEA-AEEA-γGlu-C18 diacid])T-NH2; N-terminus assumed)
0.011 nM | 45 h | CC(C)C[C@H](NC(=O)[C@H](CC(=O)O)NC(=O)[C@H](CC(C)C)NC(=O)[C@H](Cc1ccc(O)cc1)NC(=O)[C@H](CCCCN)NC(=O)[C@H](CO)NC(=O)[C@H](CC(C)C)NC(=O)[C@H](CC(=O)O)NC(=O)[C@H](CO)NC(=O)[C@@H](NC(=O)[C@H](Cc1ccccc1)NC(=O)[C@@H](NC(=O)CNC(=O)[C@H](CCC(N)=O)NC(=O)C(C)(C)NC(=O)[C@@H](N)Cc1c[nH]cn1)[C@@H](C)O)[C@@H](C)O)C(=O)N[C@@H](CCCNC(=N)N)C(=O)N[C@@H](CCCNC(=N)N)C(=O)N[C@@H](C)C(=O)N[C@@H](CCC(N)=O)C(=O)N[C@@H](CC(=O)O)C(=O)N[C@@H](Cc1ccccc1)C(=O)N[C@H](C(=O)N[C@@H](CCC(N)=O)C(=O)N[C@@H](Cc1c[nH]c2ccccc12)C(=O)N[C@@H](CC(C)C)C(=O)N[C@@H](CC(C)C)C(=O)N[C@@H](CCCCNC(=O)CC[C@H](NC(=O)CC[C@H](NC(=O)[C@H](CO)NC(=O)[C@H](CCC(=O)O)NC(=O)[C@H](CO)NC(=O)CC[C@H](NC(=O)CC[C@H](NC(=O)CCCCCCCCCCCCCCCCC(=O)O)C(=O)O)C(=O)O)C(=O)O)C(=O)O)C(=O)N[C@H](C(N)=O)[C@@H](C)O)C(C)C [Example 53, N^ε28-[(4S)-4-carboxy-4-[[(4S)-4-carboxy-4-[[(2S)-2-[[(2S)-4-carboxy-2-[[(2S)-2-[[(4S)-4-carboxy-4-[[(4S)-4-carboxy-4-(17-carboxyheptadecanoylamino)butanoyl]amino]butanoyl]amino]-3-hydroxypropanoyl]amino]butanoyl]amino]-3-hydroxypropanoyl]amino]butanoyl]amino]butanoyl]-[Aib2,Leu10,Leu16,Leu27,Lys28]-Glucagon amide] (H-H[Aib]QGTFTSDLSKYLDLRRAQDFVQWLLK([γGlu-γGlu-Ser-Glu-Ser-γGlu-γGlu-C18 diacid])T-NH2; N-terminus assumed)
